Data: patent US9512138B2, “Compositions and methods for treating cancer” (The Regents of the University of California, priority 2012, dated 2016)
Counter-ions that a name gives are not always drawn.

Columns and labels:
[1] = in vivo; cited from earlier work
[2] = cited from earlier work
[3] = tested on: MCF-7/HER2 cells; experiment: MCF-7/HER2 xenografts in nude mice; assay type: in vivo
Source text: (§1) Conversion of estrogen-sensitive to -resistant tumors after the start of antiestrogen therapy is a major problem in the clinic (65). This resistance may be due, in part, to enhanced growth factor signaling, a cellular response to antiestrogen treatment that eventually results in increased phosphorylation of ER and/or coactivators, such as AIB1(54). Convergence between growth factor and estrogen signaling may elicit a synergistic feed-forward circuit with more robust cell growth (FIG. 10). It is notable that tumors with HER-2 overexpression tend to respond poorly to antiestrogens (69-72). […] Such clinical data offer further evidence of the biologic interaction between HER-2 and ER. To evaluate the relation of HER-2 to clinical antiestrogen resistance, we used estrogen-responsive, MCF-7 cells with defined levels of ER that were transfected with HER-2 gene (MCF-7/HER-2). MCF-7 cells+HER-2 overexpression and parent MCF-7 cells were grown as xenografts in nude mice as before (28) (FIGS. 11A-11B).
(§2) FIGS. 11A-11B. Overexpression of HER2 gene in MCF7 cells elicits resistance to endocrine therapy in vivo; FIG. 11A: Antiestrogen sensitivity of MCF7 parent cells without HER2 overexpression (control) in vivo. MCF7 cells were inoculated SQ in ovari-ectomized, nude mice primed with estrogen. […] Tumor volumes were recorded. […]

[4] = tested on: MCF7 parent cells without HER2 overexpression; experiment: MCF-7 parent xenografts in nude mice; assay type: in vivo; conditions: 28 d treatment
Source text: as §1, §2

[5] = tested on: MCF-7/TAMR breast cancer cells; experiment: Proliferation of tamoxifen-resistant MCF-7/TMR (TAM-R) cells; assay type: cell-based, human; conditions: absence of parthenolide analogues
Description: MCF-7/CON cells are tamoxifen-sensitive, while MCF-7/HER2 and MCF-7/TMR cells are known to be tamoxifen-resistant (28,61,66,67). Except for TMR (64,68), cells were routinely cultured in RPMI 1640 media with 10% heat-inactivated FBS (28,64,66). For E2-free conditions, media were changed 48 h before studies to phenol-red free RPMI 1640 with 1% dextran-coated, charcoal-treated (DCC) FBS. TMR cells were derived by long-term continuous exposure of cells to 10^−7 M 4-hydroxy-tamoxifen by established methods (64,68) and were maintained with 10^−7 M 4-hydroxytamoxifen in medium. Levels of ERα and HER2 expression in these several cell lines were determined by use of Western blot methods.
Assays for Tumor Cell Proliferation. Breast tumor cells were be grown in RPMI 1640 media with 10% heat-inactivated FBS (except for TMR and TZR cells as noted above). For estrogen-free conditions, medium were changed 48 h before studies to phenol-red free RPMI 1640 with 1% dextran-coated, charcoal-treated (DCC) FBS, then treated with selected reagents. Cell counts and viability tests (Trypan blue) will be done every 24 hr for […]. After 48-72 hr, proliferation was assessed by cell counts.

[6] = tested on: NF-κB/p65 phosphorylation; experiment: Western blot of phospho-NF-κB/p65 in H23 cells; assay type: cell-based, human; conditions: for phosphorylation of the p65 subunit of NF-κB: 10 μM, 60 min (FIG. 7)
Description: FIG. 7. […] After 60 min Western blot were performed using anti-phospho-NF-κB/p65 antibody (Cell Signaling Technology #3031). Membranes were stripped and re-probed with antibody against total NF-κB/p65 (CST #3037).
After 60 min, Western blots were done using anti-phospho-NFκB/p65 antibody (Cell Signaling).
Upon confirming that parthenolide analogues can inhibit NSCLC cell proliferation, induce cell death and enhance the cytotoxicity of chemotherapy, we began to investigate potential cellular mechanisms that may underlie this process. For example, we used Western Blot methods to determine phosphorylation of the p65 subunit of NF-κB. H23 cells were incubated in the presence of vehicle control or 10 μM concentration of the parthenolide derivatives (JD 201, 202, 203, 204) for 60 min. After treatment, cells were collected and homogenized in lysis buffer. Extracts were electrophoresed on 4-20% gradient SDS-PAGE gels and transferred to nitrocellulose membranes. Blots were probed with anti-phospho-NF-κB/p65 and NF-κB/p65 for a loading control.

[7] = tested on: A549, H23, H2122 and H1975 NSCLC cells; experiment: MTS cell viability/proliferation assay in NSCLC cell lines, 72 h; assay type: cell-based, human
Description: FIG. 5. Parthenolide analogues JD201-JD210 suppress human lung tumor cell proliferation in vitro. A549, H23, H2122 and H1975 NSCLC cells were treated with increasing concentrations of drugs (0.1-100 μM). After 72 h cell viability was assessed by MTS assay. Viable cells are expressed as percentage of vehicle control. P<0.01 (**), versus control group, P<0.05 (*), versus control group. Natural occurring parthenolide (PTL), parthenolide analogues JD201 (DMAPT)-JD210. Parthenolide analogues inhibit female (H1975, H2122) and male (H23, A549) NSCLC cell proliferation.
To determine the effect of parthenolide analogues in lung cancer cell proliferation we tested two male (A549, H23) and two female (H2122, H1975) lung cancer cell lines with increasing concentrations of parthenolide analogues (0.1, 1, 10 and 100 μM) for 72 hours.

[8] = tested on: MCF-7/HER2 cells; experiment: Proliferation of tamoxifen-resistant MCF-7/HER2 cells (cell counts); conditions: 0.1-50 micromolar, 72 hours, cell counts; P<0.001 vs controls
Description: Assays for Tumor Cell Proliferation. […] Cell counts and viability tests (Trypan blue) will be done every 24 hr for 2-33 days. After 48-72 hr, proliferation was assessed by cell counts.

[9] = tested on: A549 NSCLC xenografts; experiment: A549 NSCLC xenografts in immunodeficient mice; assay type: in vivo
[10] = tested on: cancer stem cells (CSC) derived from NSCLC (H157); experiment: Annexin-V apoptosis assay in lung cancer stem cells; assay type: cell-based, human; conditions: compared with bulk NSCLC cells, 3 independent experiments
Description: FIG. 3. […] A comparison is performed using bulk NSCLC cells. Results based on annexin-V assays in 3 independent experiments.
Analogues of parthenolide were prepared and purified (FIG. 8) and assessed for antitumor efficacy, to develop the best agents for clinical use. Responses of CSC-like subsets, bulk tumor cells and normal lung epithelial cells to parthenolide (PTL) analogues alone and with chemotherapy are ongoing, with assessments by TUNEL and Annexin-V assay for apoptosis (13) (FIG. 3) and cell proliferation (FIG. 4).

[11] = tested on: H157 NSCLC cells (bulk and CSC-subpopulations); experiment: Proliferation of NSCLC bulk cells and CSC subpopulations; assay type: cell-based, human; conditions: bulk cell preparations and CSC-subpopulations; drug dose 20 micromolar; P<0.05 vs control
Source text: FIG. 4. […] JD201 drug dose=20 micromolar.
Lung cancer is the leading cause of cancer death in men and women worldwide. The poor prognosis of advanced non-small cell lung cancer (NSCLC) is due, in part, to emergence of tumor resistance to chemotherapy. […] If such minute subsets of CSC drive tumor formation and drug resistance, therapies targeting the bulk tumor mass but not CSC will fail. […] We identified CD133+/ALDH+ tumor stem/progenitor cells from human lung cancer cells in vitro using established Aldefluor assays in combination with labeled anti-CD133 antibodies. […] The antitumor effect of PTL may be due to its action as a potent inhibitor of nuclear factor-KB (NF-κB), which is markedly activated by chemotherapy. To target CSC and suppress tumor progression, we synthesized and tested novel analogs of PTL with improved antitumor properties and aqueous solubility. […] Dose-dependent increments of PTL analogs increase apoptosis of CSC when compared with bulk cells. […] Using Western blots, we find that PTL congeners inhibit phosphorylation of the p65 subunit of phospho-NF-κB and activation of IKKα/β. […]
Analogues of parthenolide were prepared and purified (FIG. 8) and assessed for antitumor efficacy, to develop the best agents for clinical use. […]

[12] = tested on: A549 NSCLC cells; experiment: ALDH+/CD133+ cancer stem/progenitor cell subset by Aldefluor/CD133 FACS; assay type: cell-based, human; conditions: 10 nM estradiol-17b, P<0.001
Description: FIG. 1. Isolation of cancer stem/progenitor cell subsets as determined by assay of specific biomarkers, ALDH and CD133, and effect of estrogen exposure. NSCLC cells (A549) were treated in vitro with control (CON), 10 nM estradiol-17b (E2), or E2 in the presence of […] fulvestrant. Thereafter, aldehyde dehydrogenase (ALDH) activity and CD133 expression were analyzed by established double labeling methods using an Aldefluor Assay Kit and CD133 antibody, respectively, followed by FACS sorting. The numbers of ALDH+/CD133+ lung tumor cells, representing a putative CSC subset, was expressed as a percent of total lung tumor cells for each treatment group. […] Experiments were done in triplicate.
Substantial evidence has accumulated to support the role of a small subset of self-renewing cells that sustain malignant growth. […] Based on these findings, we identified CD133+/ALDH+ tumor stem/progenitor cells from human lung cancer cells in vitro using an Aldefluor assay (to isolate ALDH+ cells) (5,7,8) in combination with labeled anti-CD133 antibodies (3,10) followed by fluorescence-activated cell sorting analysis (11). In brief, ALDH activity and CD133 expression were analyzed by established double labeling methods using the Aldefluor Assay Kit (Stem Cell Technologies) and CD133/1 antibody (Miltenyi) according to the manufacturer's instructions. […] Data were analyzed using FlowJo (Tree Star Inc.). […]

C/C1=C\CC[C@@]2(C)O[C@H]2[C@H]2OC(=O)[C@@H](CN(C)C)[C@@H]2CC1 [JD201, (1aR,7aS,8R,10aS,Z)-8-((Dimethylamino)methyl)-1a,5-dimethyl-2,3,6,7,7a,8,10a,10b-octa-hydrooxireno[2′,3′:9,10]cyclodeca[1,2-b]furan-9(1aH)-one, fumaric acid salt]
toxicology profile [1]: acceptable
plasma concentrations ([2]; after oral administration): 40 µM
oral bioavaliability ([2]; oral): 70%

CC/C(=C(\c1ccccc1)c1ccc(OCCN(C)C)cc1)c1ccccc1 [tamoxifen]
antiestrogen sensitivity of MCF-7/HER-2 xenografts [3]: insensitive
growth of MCF-7 parent xenografts [4]: markedly suppressed
response of MCF-7/TMR cells to tamoxifen alone [5]: resistant

C/C1=C\CC[C@@]2(C)O[C@H]2[C@H]2OC(=O)[C@@H](CN(C)C)[C@@H]2CC1 [JD201, (1aR,7aS,8R,10aS,Z)-8-((Dimethylamino)methyl)-1a,5-dimethyl-2,3,6,7,7a,8,10a,10b-octa-hydrooxireno[2′,3′:9,10]cyclodeca[1,2-b]furan-9(1aH)-one, fumaric acid salt, reference compound]
phosphorylation of the p65 subunit of NF-κB ([6]; listed as 201): inhibit phosphory-lation of NF-κB/p65
phosphorylation of the p65 subunit of NF-κB ([6]; listed as JD 201): reduced phosphorylation of the p65 subunit of NF-κB
phosphorylation of NF-κB/p65 ([6]; 10 µM, 60 min (FIG. 13)): inhibit phosphorylation of NF-κB/p65
growth inhibition at 10 μM ([7]; 10 μM, A549, H23, H2122, H1975): Significant growth inhibition
growth inhibition at 100 μM ([7]; 100 μM, A549, H23, H2122, H1975): Significant growth inhibition
inhibitory activity relative to other analogues ([7]; FIG. 5, 0.1-100 μM): greater inhibitory activity than compounds 205 and 207
proliferation of MCF-7/HER2 cells [8]: dose-dependent (0.1-50 micromolar) reduction in proliferation
tumor progression ([9]; oral gavage 100 mg/kg/day for 21 days vs vehicle control): reduction in tumor progression
tumor volumes ([9]; oral gavage 100 mg/kg/day for 21 days, vehicle controls 252±31 mm^3): 55±5 mm^3
apoptosis of cancer stem cells (annexin-V) [10]: dose-dependent increments in apoptosis
proliferation of NSCLC cells [11]: inhibits proliferation

estradiol-17b
proportion/number of ALDH+/CD133+ cancer stem/progenitor cells [12]: increases the proportion of cancer stem/progenitor cell subsets
proportion/number of ALDH+/CD133+ cancer stem/progenitor cells ([12]; listed as estrogen): modest increase in the numbers of CSC
